Reference: article PMC6397180 (Scientific Reports, 2019)
“And” between values parts separate entries of the source, which are not always exact repeats. Equal entries are not always repeated.

Tests used:
[1] = system: interaction of Tat with HSPGs on TZM-bl cells; assay: Inhibition of transcellular transactivation by HSPG competitive antagonists; assay type: cell-based, human; details: TZM-bl cells exposed to Tat-B-WT produced in HeLa cells
Experimental: HeLa cells were seeded in 6-well plates at 7.5 × 10^5 cells per well and transfected with 2.5 μg of Tat expression plasmid DNA (Lipofectamine 3000, Invitrogen). After 6 h, the media was replaced with DMEM/10% FBS. Next day, TZM-bl reporter cells were seeded in a 24-well plate, at 1.5 × 10^5 cells per well. Similarly, C20 microglial cells were seeded in a 12-well plate, at 3 × 10^5 cells per well. After allowing 5–6 h for cell attachment, supernatant from the tat-transfected HeLa cells was collected, which was centrifuged at 500 × g for 10 minutes to remove debris and dead cells. Importantly, at this step and all others involving handling of Tat-containing media, siliconized tubes and tips were used to minimize the adsorption of Tat to surfaces. Tat-transfected HeLa supernatants were used to replace either TZM-bl media (400 μL) or C20 media (800 μL), and the cells incubated for 12 h (C20) or 24 h (TZM-bl).
TZM-bl cell lysates were harvested and stored at −80 °C until luciferase activity was measured. Frozen TZM-bl cell lysates were thawed on ice for 30 minutes, centrifuged at 14,000 × g for 2 minutes, and the protein concentration in the supernatants measured by BCA protein assay. […] The side of the plate was gently tapped and each sample was immediately assayed for luciferase activity using a plate-reader, measuring each sample in Relative Light Units (RLU) (PerkinElmer VICTOR-2).

[2] = system: PMA-differentiated THP-1 cells; assay: Confocal microscopy of labeled CPP uptake; assay type: cell-based; details: 1 μM peptide, 37 °C, 30 minutes, trypsin to strip surface-bound CPP, fluorescence 488 nm
[3] = system: 293T cells; assay: Flow cytometry of labeled CPP uptake; assay type: cell-based, human; details: for effect of soluble heparin on CPP uptake: 293T cells incubated with labeled CPPs and increasing concentrations of soluble heparin; for decrease of CPP uptake at 4 °C compared with 37 °C: 2 μM CPP, 4 °C (10 min pre-incubation) vs 37 °C
Experimental: 293T cells were plated in 12-well plates at 2.5 × 10^5 cells per well, to achieve approximately 70% - 80% confluence by the next day. Thirty minutes before the experiment, cell medium was changed to low-serum DMEM with 1% Pen-Strep. Cells were washed once with PBS, treated with Tat-CPP in low-serum DMEM, and placed in either a tissue-culture incubator (37 °C/5% CO2) or a refrigerator (4 °C)(samples treated at 4 °C were pre-incubated in refrigerator for 10 minutes before CPP treatment). Cells were gently washed twice with PBS (w/10%FBS), then treated with 300 µl of pre-warmed 0.05% trypsin for 5 min, to detach cells and enzymatically digest surface-bound Tat-CPP. Cells were resuspended in 1 ml PBS (with 10% FBS and 2 mM EDTA), and peptide uptake assessed by flow cytometry (FACScalibur). Live cells were gated using forward-scatter and side-scatter ratio, then interrogated >10,000 live-cell events each for fluorescence signal emission at 488 nm. Data was analyzed using FlowJo software v9.3.3 (FlowJo LLC). To adjust for differences in instrument settings and voltage adjustments between experiments we transformed the raw MFI values within each experiment into values proportional to the greatest MFI reading in that particular experiment. Heparinase enzymes were used to pre-treat cells by combination of Heparinase I and III at 17 IU and 1 IU, respectively, per mL of plain DMEM. Cells were treated with enzymes for 2 h in an 37 °C, then washed with PBS and exposed to CPPs as above.

[4] = system: C20 microglial cells; assay: TNFα protein in supernatants of Tat-treated microglia (Luminex cytokine detection assay); assay type: cell-based, human; details: C20 microglia exposed 24 h to equivalent inputs of Tat-containing HeLa media
Experimental: (§1) C20 microglia were exposed for 24 h, to equivalent inputs of HeLa cell media containing Tat protein (Tat-B*, Tat-B* R57S, Tat-C or Tat-C S57R or empty vector) as described above for cytokine expression. As a control, spent media of HeLa cells transfected with an empty pcDNA 3.1 construct was used. Approximately 50, 000 cells containing a mixture of human fetal neurons and glia plated on 35 mm MatTek plates were treated with 200 µl of spent media from Tat-exposed microglial cultures for 30 h.

[5] = system: h-Hu_C20 human microglial cells; assay: qRT-PCR of cytokine gene expression in C20 cells exposed to Tat; assay type: cell-based; details: equivalent levels of Tat proteins applied; compared with position 57 variant of the same clade
Experimental: We transfected 2 × 10^6 HeLa cells with pEGFP, pcDNA 3.1 and the plasmids expressing the four Tat variants. At 24 hours post transfection, media were collected and Tat ELISA performed to determine the amount of Tat present. C20 microglia (2 × 10^6) were incubated with equal amounts of Tat media for 24 h. PMA (5 ng) or LPS (5 ng) were also included in separate wells as controls. C20 cells were washed with PBS, treated with trypsin, pelleted by centrifugation at 500 × g for 10 minutes, and total cell RNA isolated using an RNeasy Kit (Qiagen). RNA was reverse transcribed in a first-strand cDNA synthesis reaction (GoScript, Promega), using oligo dT primers. The cDNA was diluted to 100 ng per 3 μL in each reaction well, and combined with 2x Taqman Gene Expression Master Mix (ThermoFisher) and Taqman Gene Expression Assay primer-probes: GAPDH (Hs02758991_g1), IL6 (Hs00985639_m1), IL8 (Hs00174103_m1), IL-1β (Hs00174097_m1) or CXCL1 (Hs00236937_m1). Each sample was assayed in triplicate on a 384-well plate, and run under standard qRT-PCR cycling conditions on a 7900HT instrument (ABI).

[6] = system: primary human neuron-astrocyte co-cultures; assay: Treatment of neurons with spent media from Tat-exposed microglia; assay type: cell-based; details: co-cultures treated 30 h with 200 µl spent media from Tat-exposed microglia, neurotubulin staining
Experimental: as §1
For the purpose of imaging of neurons and quantifying axonal/dendritic lengths, neurons treated as above were fixed with 4% PFA for 15 min and washed with 1x PBS. Cells were permeabilized with 0.1% Triton X-100 for 3 minutes and washed as before. Non-specific sites were blocked with 1X SBS buffer (50 mM EDTA, 0.01% Fish Gelatin, 0.1 g BSA, 1% Horse serum in PBS) for 1 h at room temperature and the cells washed. Cells were stained with anti-neurotubulin antibodies, anti-GFAP antibodies and DAPI to stain neurons, glial cells and nuclei respectively. Neuronal images were captured using a Leica Confocal TCS SP5 microscope (Leica Microsystems, Bannockburn, IL). Axonal/dendritic lengths were quantified using Volocity 6.3 software.

[7] = system: LTR-driven luciferase reporter gene in TZM-bl cells; assay type: cell-based, human

Cc1ccc(C(=O)Nc2ccc(S(=O)(=O)O)c3cc(S(=O)(=O)O)cc(S(=O)(=O)O)c23)cc1NC(=O)c1cccc(NC(=O)Nc2cccc(C(=O)Nc3cc(C(=O)Nc4ccc(S(=O)(=O)O)c5cc(S(=O)(=O)O)cc(S(=O)(=O)O)c45)ccc3C)c2)c1 [suramin]
concentration sufficient to diminish transcellular transactivation of extracellular Tat to near background levels [1]: 100 µg/mL

GRKKRRQRRR [CPP-R57, Tat CPP decapeptide (residues 48–57) of HIV-1B, N-terminal HiLyte Fluor 488 tag]
internalization of labeled peptide (confocal microscopy) [2]: higher amount of labeled peptide | effect of soluble heparin on CPP uptake [3]: dose-dependent inhibition of uptake | decrease of CPP uptake at 4 °C compared with 37 °C ([3]; 293T cells, flow cytometry): ~ 75% | CPP-R57 uptake relative to CPP-S57 ([3]; 293T cells, flow cytometry, 2 μM peptide, n = 4): 3–4 fold

GRKKRRQRRS [CPP-S57, Tat CPP decapeptide (residues 48–57) of HIV-1C, N-terminal HiLyte Fluor 488 tag]
uptake in dose response ([3]; 293T and THP1 cells, increasing concentrations of CPP, flow cytometry): reduced uptake | effect of soluble heparin on CPP uptake [3]: dose-dependent inhibition of uptake | decrease of CPP uptake at 4 °C compared with 37 °C ([3]; 293T cells, flow cytometry): 50% and ~ 50%

Tat-B*: Tat-B variant with R7N and K12N mutations and C-terminal myc tag
TNFα protein levels in supernatants of Tat-treated microglia [4]: 19.2 ng/mL | inflammatory cytokine gene transcripts IL-6, IL-8, IL-1β and CXCL1 [5]: higher levels | appearance of neuronal processes (dendrites and axons) [6]: shorter and thinner

heparin
concentration sufficient to diminish transcellular transactivation of extracellular Tat to near background levels [1]: 10 µg/mL

B1: Tat-B-49AAA51: Tat-B with triple alanine substitution in residues 49-RKK-51 (protein, UniProt P04608 1-86, looked up, variant R49A K50A K51A)
Protein Tat: MEPVDPRLEPWKHPGSQPKTACTNCYCKKCCFHCQVCFITKALGISYGAAARRQRRRAHQNSQTHQASLSKQPTSQPRGDPTGPKE
transcriptional activity relative to TatB-WT [7]: 10% | decrease of luciferase output upon direct transfection ([7]; TZM-bl cells directly transfected, relative to Tat-B-WT): approximately 90%
